Test: USP dissolution test (Apparatus II paddles, pH 7.2 phosphate buffer with SDS, 37° C.)
Type: physicochemical
Conditions: for Time to dissolve: uncoated; for Initial dissolution rate (—): grinding pressure 0
Procedure: The coated API core particles have the taste of the API masked to allow easy swallowing or even chewing by patients. The API is still released from the coated API core particles in relatively short time. A USP Dissolution Test may be used to assess the release of API from the coated API core particles. The dissolution test employs a media of 7.2 pH phosphate buffer solution with 0.4 g/L sodium dodecyl sulfate (SDS, used to ensure wetting of the powders) at 37° C. and is carried out in USP Apparatus II (paddles) rotating at 50 RPM. The percentage of active pharmaceutical ingredient that is dissolved is measured over time. The coated API core particles can release the API in 30 minutes or less as measured in the USP Dissolution test, or in 20 minutes or less as measured in the USP dissolution test.

## O=C1O[C@H]([C@@H](O)CO)C(O)=C1O [ascorbic acid]
Example 23: 45 μm-63 μm
  Time to dissolve: 10 s
Example 23: 90 μm-125 μm
  Time to dissolve: less than 20 seconds
Example 23: 150 μm-250 μm
  Time to dissolve: less than 60 seconds
Example 23: 425 μm-500 μm
  Time to dissolve: less than 60 seconds
Ascorbic acid initial d50 93 μm
  Initial dissolution rate (—): 9.16
Ascorbic acid initial d50 192 μm
  Initial dissolution rate (—): 7.764
Ascorbic acid initial d50 341 μm
  Initial dissolution rate (—): 4.053

— patent US9107851B2, “Solventless mixing process for coating pharmaceutical ingredients” (New Jersey Institute of Technology, priority 2012, dated 2015)
